# Reference: patent publication US8343467B2 (Beiersdorf AG, priority 2004, dated 2013)
# Assays:
# bacteria = test: antimicrobial / antibacterial effectiveness of glycopyrrolate alone and as enhancer; format: cell-based
# Source text: Although this incorporation alone is not sufficient to destroy the bacteria, this makes them more susceptible to attack by antibacterial substances (deodorizing/antiperspirant agents) which can pass through or even destroy the membrane due to the impaired membrane integrity.
# [1] = compared with scopolamine, cited from earlier work
smiles,measurement,setting,value
"C[N+]1(C)CC[C@@H](OC(=O)[C@@](O)(c2ccccc2)C2CCCC2)C1 (relative stereo) [Glycopyrrolate, (±)-(R*)-3-[(S*)-(cyclopentyl hydroxyphenylacetoxy]-1,1-dimethylpyrrolidiniumbromide]",antimicrobial effectiveness,bacteria; glycopyrrolate alone,no or only slight antimicrobial effectiveness
same,antibacterial effect,bacteria; glycopyrrolate alone in the formulations used,does not show any antibacterial effect
same,penetration of biological membranes,[1],penetrates biological membranes more slowly
same,side effects,[1]; topical,fewer side effects than scopolamine
